Measured values reported in patent US9828360B2 (Array BioPharma Inc., priority 2012, dated 2017).

What was measured:
Test in all cases: KinaseProfiler off-target kinase profiling
Format in all cases: biochemical
Conditions in all cases: 10 μM, ATP near Km
MAPKAP-K2 = target: T1, MAPKAP-K2 (Homo sapiens, UniProt P49137)
T1 construct: purchased Millipore, Inc. (KinaseProfiler service)
Procedure: (§1) A representative compound of the invention (Example 48) was tested for off-target kinase activity at a concentration of 10 μM by Millipore, Inc. in their KinaseProfiler™ service against all the kinases available in their full kinase panel. The compound was run in duplicate at a concentration of ATP near the Km for each individual kinase according to Millipore's specifications. The results are shown in Table B. Data are reported as percent of control (POC) and are the average of the two replicates.

CDK2/cyclinE = target: T2, CDK2/cyclinE (Homo sapiens, UniProt P24941)
T2 construct: purchased Millipore, Inc. (KinaseProfiler service)
Procedure: as §1

Ron = target: T3, Ron (Homo sapiens, UniProt Q04912)
T3 construct: purchased Millipore, Inc. (KinaseProfiler service)
Procedure: as §1

DAPK3 = target: T4, DAPK3 (Homo sapiens, UniProt O43293)
T4 construct: purchased Millipore, Inc. (KinaseProfiler service)
T4 sequence (O43293 whole entry): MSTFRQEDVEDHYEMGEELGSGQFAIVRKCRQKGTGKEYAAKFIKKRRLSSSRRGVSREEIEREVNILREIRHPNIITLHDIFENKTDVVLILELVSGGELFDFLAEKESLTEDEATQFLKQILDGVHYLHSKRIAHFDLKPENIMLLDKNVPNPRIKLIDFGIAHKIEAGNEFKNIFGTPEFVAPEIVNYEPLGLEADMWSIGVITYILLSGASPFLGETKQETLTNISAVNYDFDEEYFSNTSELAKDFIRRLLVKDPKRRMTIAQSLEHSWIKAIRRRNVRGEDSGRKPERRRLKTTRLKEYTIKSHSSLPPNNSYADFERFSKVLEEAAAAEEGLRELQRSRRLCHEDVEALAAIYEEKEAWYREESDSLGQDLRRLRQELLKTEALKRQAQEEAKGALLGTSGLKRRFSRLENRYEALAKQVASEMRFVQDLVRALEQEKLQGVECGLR
Procedure: as §1

CDK9/cyclinT1 = target: T5, CDK9/cyclinT1 (Homo sapiens, UniProt P50750)
T5 construct: purchased Millipore, Inc. (KinaseProfiler service)
Procedure: as §1

EphA8 = target: T6, EphA8 (Homo sapiens, UniProt P29322)
T6 construct: purchased Millipore, Inc. (KinaseProfiler service)
Procedure: as §1

CDK3/cyclinE = target: T7, CDK3/cyclinE (Homo sapiens, UniProt Q00526)
T7 construct: purchased Millipore, Inc. (KinaseProfiler service)
Procedure: as §1

PTK5 = target: T8, PTK5 (Homo sapiens, UniProt P42685)
T8 construct: purchased Millipore, Inc. (KinaseProfiler service)
Procedure: as §1

Ros = target: T9, Ros (Homo sapiens, UniProt P08922)
T9 construct: purchased Millipore, Inc. (KinaseProfiler service)
Procedure: as §1

IR = target: T10, IR (Homo sapiens, UniProt P06213)
T10 construct: purchased Millipore, Inc. (KinaseProfiler service)
Procedure: as §1

PKCiota = target: T11, PKCiota (Homo sapiens, UniProt P41743)
T11 construct: purchased Millipore, Inc. (KinaseProfiler service)
Procedure: as §1

PTK6 = target: T12, PTK6 (Homo sapiens, UniProt Q13882)
T12 construct: purchased Millipore, Inc. (KinaseProfiler service)
Procedure: as §1

BrSK1 = target: T13, BrSK1 (Homo sapiens, UniProt Q8TDC3)
T13 construct: purchased Millipore, Inc. (KinaseProfiler service)
T13 sequence (Q8TDC3 whole entry): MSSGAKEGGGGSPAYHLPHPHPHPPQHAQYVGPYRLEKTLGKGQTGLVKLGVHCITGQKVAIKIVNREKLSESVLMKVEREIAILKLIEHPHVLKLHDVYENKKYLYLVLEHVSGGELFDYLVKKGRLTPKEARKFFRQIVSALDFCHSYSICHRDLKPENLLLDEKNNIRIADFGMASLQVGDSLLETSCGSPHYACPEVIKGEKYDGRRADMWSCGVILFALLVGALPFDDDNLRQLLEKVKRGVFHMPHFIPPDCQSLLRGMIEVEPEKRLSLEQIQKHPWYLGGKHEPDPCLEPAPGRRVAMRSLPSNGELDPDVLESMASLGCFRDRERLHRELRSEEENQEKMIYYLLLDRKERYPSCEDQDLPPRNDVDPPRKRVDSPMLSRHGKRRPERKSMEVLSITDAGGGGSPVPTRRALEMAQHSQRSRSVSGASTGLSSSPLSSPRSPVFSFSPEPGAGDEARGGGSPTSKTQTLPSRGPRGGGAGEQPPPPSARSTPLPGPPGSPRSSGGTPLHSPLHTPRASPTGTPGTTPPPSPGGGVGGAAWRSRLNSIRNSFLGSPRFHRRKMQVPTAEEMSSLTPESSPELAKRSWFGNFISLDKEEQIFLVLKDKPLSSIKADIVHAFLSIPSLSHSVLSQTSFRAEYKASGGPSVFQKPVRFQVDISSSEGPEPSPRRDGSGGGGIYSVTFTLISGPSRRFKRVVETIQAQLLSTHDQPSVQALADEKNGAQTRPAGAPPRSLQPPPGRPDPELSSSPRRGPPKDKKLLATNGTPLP
Procedure: as §1

JNK2alpha2 = target: T14, JNK2alpha2 (Homo sapiens, UniProt P45984)
T14 construct: purchased Millipore, Inc. (KinaseProfiler service)
T14 sequence (P45984 whole entry): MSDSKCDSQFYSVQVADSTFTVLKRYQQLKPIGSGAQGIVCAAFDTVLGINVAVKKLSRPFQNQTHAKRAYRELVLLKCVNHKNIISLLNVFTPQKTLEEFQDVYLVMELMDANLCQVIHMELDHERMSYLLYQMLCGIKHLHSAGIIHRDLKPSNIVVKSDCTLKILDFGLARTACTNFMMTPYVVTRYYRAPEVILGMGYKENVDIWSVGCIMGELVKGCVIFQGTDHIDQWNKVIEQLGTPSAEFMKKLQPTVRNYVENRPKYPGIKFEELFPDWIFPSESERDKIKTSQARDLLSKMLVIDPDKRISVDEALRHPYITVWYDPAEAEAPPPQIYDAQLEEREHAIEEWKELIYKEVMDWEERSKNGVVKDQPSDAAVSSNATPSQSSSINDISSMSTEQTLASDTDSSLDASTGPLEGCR
Procedure: as §1

GRK7 = target: T15, GRK7 (Homo sapiens, UniProt Q8WTQ7)
T15 construct: purchased Millipore, Inc. (KinaseProfiler service)
T15 sequence (Q8WTQ7 whole entry): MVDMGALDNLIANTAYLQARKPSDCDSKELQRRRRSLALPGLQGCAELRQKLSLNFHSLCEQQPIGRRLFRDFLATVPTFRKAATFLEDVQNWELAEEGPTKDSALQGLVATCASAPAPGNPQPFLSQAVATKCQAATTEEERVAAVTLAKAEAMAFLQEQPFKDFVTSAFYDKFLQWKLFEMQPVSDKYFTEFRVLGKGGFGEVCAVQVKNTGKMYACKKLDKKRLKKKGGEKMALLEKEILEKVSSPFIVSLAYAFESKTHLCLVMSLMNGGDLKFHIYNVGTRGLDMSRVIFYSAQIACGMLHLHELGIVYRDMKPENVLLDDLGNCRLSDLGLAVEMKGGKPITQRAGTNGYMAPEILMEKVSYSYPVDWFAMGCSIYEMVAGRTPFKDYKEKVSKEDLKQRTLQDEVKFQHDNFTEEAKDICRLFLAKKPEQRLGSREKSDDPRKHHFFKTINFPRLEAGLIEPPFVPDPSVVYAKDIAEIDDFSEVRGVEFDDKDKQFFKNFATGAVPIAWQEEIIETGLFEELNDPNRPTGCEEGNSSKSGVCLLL
Procedure: as §1

CSK = target: T16, CSK (Homo sapiens, UniProt P41240)
T16 construct: purchased Millipore, Inc. (KinaseProfiler service)
T16 sequence (P41240 whole entry): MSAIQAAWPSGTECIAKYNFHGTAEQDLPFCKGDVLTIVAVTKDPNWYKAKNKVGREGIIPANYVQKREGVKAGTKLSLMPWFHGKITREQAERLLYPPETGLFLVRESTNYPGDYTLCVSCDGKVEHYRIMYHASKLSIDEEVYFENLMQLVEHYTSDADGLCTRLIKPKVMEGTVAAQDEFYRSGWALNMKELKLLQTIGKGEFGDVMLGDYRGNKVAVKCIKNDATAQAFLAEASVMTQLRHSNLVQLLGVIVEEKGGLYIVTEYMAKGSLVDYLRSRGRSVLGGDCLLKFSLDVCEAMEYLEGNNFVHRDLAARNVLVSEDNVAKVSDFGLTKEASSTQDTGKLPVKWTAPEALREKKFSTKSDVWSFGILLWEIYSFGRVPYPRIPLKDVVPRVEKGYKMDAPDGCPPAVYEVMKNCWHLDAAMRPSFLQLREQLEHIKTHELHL
Procedure: as §1

CK1gamma2 = target: T17, CK1gamma2 (Homo sapiens, UniProt P78368)
T17 construct: purchased Millipore, Inc. (KinaseProfiler service)
T17 sequence (P78368 whole entry): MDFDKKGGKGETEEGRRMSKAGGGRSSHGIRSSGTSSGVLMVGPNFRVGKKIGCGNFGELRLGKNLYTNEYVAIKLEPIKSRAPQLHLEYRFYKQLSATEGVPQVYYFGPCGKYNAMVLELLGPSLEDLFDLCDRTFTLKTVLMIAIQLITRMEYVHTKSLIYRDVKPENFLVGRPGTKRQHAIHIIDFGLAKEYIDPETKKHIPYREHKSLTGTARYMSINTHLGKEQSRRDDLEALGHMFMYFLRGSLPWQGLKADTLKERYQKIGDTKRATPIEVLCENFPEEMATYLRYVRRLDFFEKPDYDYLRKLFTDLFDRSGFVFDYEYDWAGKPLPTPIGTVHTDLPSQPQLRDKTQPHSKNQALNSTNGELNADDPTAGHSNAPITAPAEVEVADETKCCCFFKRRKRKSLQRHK
Procedure: as §1

IGF-1R Activated = target: T18, IGF-1R Activated (Homo sapiens, UniProt P08069)
T18 construct: purchased Millipore, Inc. (KinaseProfiler service)
Procedure: as §1

Fer = target: T19, Fer (Homo sapiens, UniProt P16591)
T19 construct: purchased Millipore, Inc. (KinaseProfiler service)
Procedure: as §1

EphB2 = target: T20, EphB2 (Homo sapiens, UniProt P29323)
T20 construct: purchased Millipore, Inc. (KinaseProfiler service)
Procedure: as §1

MARK1 = target: T21, MARK1 (Homo sapiens, UniProt Q9P0L2)
T21 construct: purchased Millipore, Inc. (KinaseProfiler service)
Procedure: as §1

EphA5 = target: T22, EphA5 (Homo sapiens, UniProt P54756)
T22 construct: purchased Millipore, Inc. (KinaseProfiler service)
T22 sequence (P54756 25-1037): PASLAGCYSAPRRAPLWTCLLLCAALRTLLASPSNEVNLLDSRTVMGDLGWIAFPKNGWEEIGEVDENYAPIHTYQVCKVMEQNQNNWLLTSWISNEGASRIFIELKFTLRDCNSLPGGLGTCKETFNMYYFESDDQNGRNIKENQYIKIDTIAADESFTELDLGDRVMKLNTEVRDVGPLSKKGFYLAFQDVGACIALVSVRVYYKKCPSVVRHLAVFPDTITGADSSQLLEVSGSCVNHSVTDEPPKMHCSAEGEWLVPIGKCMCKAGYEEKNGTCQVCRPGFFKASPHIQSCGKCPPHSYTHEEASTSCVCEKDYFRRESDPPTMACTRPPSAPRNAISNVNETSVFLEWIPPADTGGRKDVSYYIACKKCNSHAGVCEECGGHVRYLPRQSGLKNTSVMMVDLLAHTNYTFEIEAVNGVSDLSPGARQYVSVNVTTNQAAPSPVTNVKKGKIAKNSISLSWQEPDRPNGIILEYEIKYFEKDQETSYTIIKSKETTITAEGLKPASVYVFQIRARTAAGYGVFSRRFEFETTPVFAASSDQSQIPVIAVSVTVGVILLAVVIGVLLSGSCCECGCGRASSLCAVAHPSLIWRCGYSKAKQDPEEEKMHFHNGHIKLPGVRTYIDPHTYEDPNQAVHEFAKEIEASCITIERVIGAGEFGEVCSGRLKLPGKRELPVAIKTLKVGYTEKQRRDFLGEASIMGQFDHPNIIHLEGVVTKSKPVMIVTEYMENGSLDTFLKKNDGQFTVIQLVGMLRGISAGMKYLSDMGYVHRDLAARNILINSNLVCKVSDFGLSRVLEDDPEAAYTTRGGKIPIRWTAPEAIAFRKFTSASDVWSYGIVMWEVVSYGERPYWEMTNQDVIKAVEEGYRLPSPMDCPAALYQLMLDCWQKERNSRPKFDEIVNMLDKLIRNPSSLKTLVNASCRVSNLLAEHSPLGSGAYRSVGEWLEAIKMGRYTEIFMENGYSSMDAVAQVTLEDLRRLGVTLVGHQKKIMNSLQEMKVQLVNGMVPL
Procedure: as §1

Mer = target: T23, Mer (Homo sapiens, UniProt Q12866)
T23 construct: purchased Millipore, Inc. (KinaseProfiler service)
Procedure: as §1

KDR = target: T24, KDR (Homo sapiens, UniProt P35968)
T24 construct: purchased Millipore, Inc. (KinaseProfiler service)
Procedure: as §1

SIK = target: T25, SIK (Homo sapiens, UniProt P57059)
T25 construct: purchased Millipore, Inc. (KinaseProfiler service)
Procedure: as §1

CK1gamma1 = target: T26, CK1gamma1 (Homo sapiens, UniProt Q9HCP0)
T26 construct: purchased Millipore, Inc. (KinaseProfiler service)
Procedure: as §1

JAK2 = target: T27, JAK2 (Homo sapiens, UniProt O60674)
T27 construct: purchased Millipore, Inc. (KinaseProfiler service)
Procedure: as §1

PAK4 = target: T28, PAK4 (Homo sapiens, UniProt O96013)
T28 construct: purchased Millipore, Inc. (KinaseProfiler service)
Procedure: as §1

BLK_m = target: T29, BLK_m (Mus musculus, UniProt P16277)
T29 construct: purchased Millipore, Inc. (KinaseProfiler service)
Procedure: as §1

PKD1 = target: T30, PKD1 (Homo sapiens, UniProt Q15139)
T30 construct: purchased Millipore, Inc. (KinaseProfiler service)
Procedure: as §1

Abl-P = target: T31, Abl-P (Homo sapiens, UniProt P00519)
T31 construct: purchased Millipore, Inc. (KinaseProfiler service)
Procedure: as §1

Fyn = target: T32, Fyn (Homo sapiens, UniProt P06241)
T32 construct: purchased Millipore, Inc. (KinaseProfiler service)
Procedure: as §1

CK1gamma3 = target: T33, CK1gamma3 (Homo sapiens, UniProt Q9Y6M4)
T33 construct: purchased Millipore, Inc. (KinaseProfiler service)
Procedure: as §1

IR Activated = target: T34, IR Activated (Homo sapiens, UniProt P06213)
T34 construct: purchased Millipore, Inc. (KinaseProfiler service)
Procedure: as §1

ULK2 = target: T35, ULK2 (Homo sapiens, UniProt Q8IYT8)
T35 construct: purchased Millipore, Inc. (KinaseProfiler service)
Procedure: as §1

JAK3 = target: T36, JAK3 (Homo sapiens, UniProt P52333)
T36 construct: purchased Millipore, Inc. (KinaseProfiler service)
Procedure: as §1

Pim-3 = target: T37, Pim-3 (Homo sapiens, UniProt Q86V86)
T37 construct: purchased Millipore, Inc. (KinaseProfiler service)
Procedure: as §1

IRAK1 = target: T38, IRAK1 (Homo sapiens, UniProt P51617)
T38 construct: purchased Millipore, Inc. (KinaseProfiler service)
Procedure: as §1

Yes = target: T39, Yes (Homo sapiens, UniProt P07947)
T39 construct: purchased Millipore, Inc. (KinaseProfiler service)
T39 sequence (P07947 whole entry): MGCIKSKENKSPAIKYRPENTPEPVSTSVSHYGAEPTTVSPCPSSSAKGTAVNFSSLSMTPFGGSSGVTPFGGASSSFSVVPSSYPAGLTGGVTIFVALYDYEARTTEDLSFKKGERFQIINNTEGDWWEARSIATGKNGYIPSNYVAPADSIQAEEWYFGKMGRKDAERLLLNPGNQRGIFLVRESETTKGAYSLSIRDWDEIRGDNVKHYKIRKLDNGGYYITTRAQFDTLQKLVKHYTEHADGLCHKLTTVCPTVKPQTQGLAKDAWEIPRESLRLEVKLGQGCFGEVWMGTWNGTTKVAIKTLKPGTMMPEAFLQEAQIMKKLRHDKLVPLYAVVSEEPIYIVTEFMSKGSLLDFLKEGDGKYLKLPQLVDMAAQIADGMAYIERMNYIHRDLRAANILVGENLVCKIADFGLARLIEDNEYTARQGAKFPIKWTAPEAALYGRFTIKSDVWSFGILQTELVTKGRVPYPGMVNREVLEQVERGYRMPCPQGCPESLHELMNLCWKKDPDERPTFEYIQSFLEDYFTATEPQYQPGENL
Procedure: as §1

MARK2 = target: T40, MARK2 (Homo sapiens, UniProt Q7KZI7)
T40 construct: purchased Millipore, Inc. (KinaseProfiler service)
Procedure: as §1

NEK6 = target: T41, NEK6 (Homo sapiens, UniProt Q9HC98)
T41 construct: purchased Millipore, Inc. (KinaseProfiler service)
Procedure: as §1

`COCCN1C[C@@H](NC(=O)Nc2sc(C(C)C)nc2-c2ccccc2)[C@H](c2ccccc2)C1` [Example 48, 1-(2-isopropyl-4-phenylthiazol-5-yl)-3-((3S,4R)-1-(2-methoxyethyl)-4-phenylpyrrolidin-3-yl)urea] was tested, and the “Avg POC” value (MAPKAP-K2) was 109.5% of control, the “Avg POC” value (CDK2/cyclinE) was 113% of control and the “Avg POC” value (Ron) was 105.5% of control. For the same compound, the “Avg POC” value (DAPK3) was 91% of control, the “Avg POC” value (CDK9/cyclinT1) was 111.5% of control and the “Avg POC” value (EphA8) was 122.5% of control. The “Avg POC” value (CDK3/cyclinE) was 99.5% of control, the “Avg POC” value (PTK5) was 107.5% of control and the “Avg POC” value (Ros) was 111% of control. For the same compound, the “Avg POC” value (IR) was 102% of control, the “Avg POC” value (PKCiota) was 120% of control and the “Avg POC” value (PTK6) was 99.5% of control. The “Avg POC” value (BrSK1) was 123.5% of control, the “Avg POC” value (JNK2alpha2) was 93.5% of control and the “Avg POC” value (GRK7) was 122% of control. For the same compound, the “Avg POC” value (CSK) was 108% of control, the “Avg POC” value (CK1gamma2) was 94.5% of control and the “Avg POC” value (IGF-1R Activated) was 102% of control. The “Avg POC” value (Fer) was 91.5% of control, the “Avg POC” value (EphB2) was 99.5% of control and the “Avg POC” value (MARK1) was 113% of control. For the same compound, the “Avg POC” value (EphA5) was 107% of control, the “Avg POC” value (Mer) was 126.5% of control and the “Avg POC” value (KDR) was 104% of control. For the same compound, the “Avg POC” value (SIK) was 111% of control, the “Avg POC” value (CK1gamma1) was 116% of control and the “Avg POC” value (JAK2) was 123.5% of control. The “Avg POC” value (PAK4) was 134.5% of control, the “Avg POC” value (BLK_m) was 107% of control and the “Avg POC” value (PKD1) was 94.5% of control. The “Avg POC” value (Abl-P) was 147.5% of control, the “Avg POC” value (Fyn) was 108.5% of control and the “Avg POC” value (CK1gamma3) was 110% of control. The “Avg POC” value (IR Activated) was 111.5% of control, the “Avg POC” value (ULK2) was 98.5% of control and the “Avg POC” value (JAK3) was 102.5% of control. For the same compound, the “Avg POC” value (Pim-3) was 140.5% of control, the “Avg POC” value (IRAK1) was 100.5% of control and the “Avg POC” value (Yes) was 97.5% of control. For the same compound, the “Avg POC” value (MARK2) was 93% of control and the “Avg POC” value (NEK6) was 121.5% of control.
